# Measured values as given in paper PMC2759517 (PLoS ONE, 2009).
# System: PA-HA from several FluA strains
# Format: binding, influenza A virus
structure (smiles),measurement,value
CC[C@H](C)[C@H](NC(=O)[C@H](C)NC(=O)[C@H](CC(N)=O)NC(=O)[C@H](CCC(N)=O)NC(=O)[C@H](C)NC(=O)[C@@H]1CCCN1C(=O)[C@@H](NC(=O)[C@H](CCCCN)NC(=O)[C@H](CC(C)C)NC(=O)[C@H](Cc1ccccc1)NC(=O)[C@H](CC(C)C)NC(=O)[C@H](CC(C)C)NC(=O)[C@@H](NC(=O)[C@@H]1CCCN1C(=O)[C@H](CC(N)=O)NC(=O)[C@@H](NC(=O)[C@H](CC(=O)O)NC(=O)[C@@H](N)CCSC)C(C)C)[C@@H](C)O)C(C)C)C(=O)N[C@@H](CO)C(=O)N[C@H](C(=O)N[C@H](C(=O)N[C@@H](Cc1ccccc1)C(=O)N1CCC[C@H]1C(=O)N[C@@H](Cc1ccc(O)cc1)C(=O)N[C@H](C(N)=O)[C@@H](C)O)[C@@H](C)O)[C@@H](C)O [PB1_1–25A],Binding of FluA PA-HA to immobilized peptide,bound
